Earlier results, collected in patent US20140023728A1, “Iodine Liquid Soap, Dispenser and Method” (priority 2012, published 2014).
Read-outs that look alike come from different tables or passages of the source.

## II [Elemental iodine, iodine]
One gram in water at 20 degrees Celsius
  volume of water in which one gram dissolves: 3450 mL
One gram in water at 50 degrees Celsius
  volume of water in which one gram dissolves: 1280 mL
